Experimental data taken from patent US20260256763A1, “Aromatic Amide Derivative, And Preparation Method Therefor And Use Thereof” (Zhejiang Hisun Pharmaceutical Co., Ltd., priority 2023, published 2026).

Legend:
[1] = tested on: HT-29 cells; test: Inhibition on HT-29 cell proliferation (CellTiter-Glo); assay type: cell-based; details: Homo sapiens, HT-29 cells (TP53 R273H mutation), 120 hours
Experimental: Influences of the compounds of the present invention on HT-29 cell proliferation were determined by the following method. HT-29 cells (containing TP53 R273H mutation) were purchased from the Cell Bank of Shanghai Institute of Biochemistry and Cell Biology, Chinese Academy of Sciences, and cultured in a McCOY's 5A culture medium containing 10% fetal bovine serum, 100 U penicillin and 100 μg/mL streptomycin. A cell viability was determined by a CellTiter-Glo® Luminescent Cell Viability Assay kit (Promega, article number G7573).
An experimental method was operated according to steps in the instruction of the kit, which was briefly described as follows: a test compound was dissolved in DMSO first to prepare a 10 mM stock solution, then the stock solution was diluted with the above McCOY's 5A culture medium to prepare a test sample, and a final concentration of the compound was in a range of 1000 nM-0.015 nM. Cells in a logarithmic growth phase were inoculated into a 96-well cell culture plate at a density of 1000 cells per well, cultured in a 5% CO2 incubator at 37° C. overnight, and then the test compound was added to continuously culture for 120 hours. After the culture was ended, 50 µL of CellTiter-Glo detection solution was added to each well, the plates were shaken for 5 minutes, and then allowed to stand for 10 minutes, and subsequently, a luminous value of each well of sample was read by a microplate reader in a Luminescence mode. By comparing with a numerical value of a control group (0.3% DMSO), a percentage inhibition rate of the compound at each concentration was calculated, and then nonlinear regression analysis was carried out based on concentration logarithm-inhibition rate of the compound in GraphPad Prism 5 software, so as to obtain an IC50 value of the compound in inhibition on cell proliferation, which are shown in Table 2.

[2] = target: T1, recombinant human KIF18A (Homo sapiens, UniProt Q8NI77); test: Inhibition on KIF18A enzyme activity (ADP-Glo); assay type: biochemical; details: recombinant human KIF18A 100 nM, ATP 60 μM
T1 construct: purchased GenScript
T1 sequence (Q8NI77 whole entry): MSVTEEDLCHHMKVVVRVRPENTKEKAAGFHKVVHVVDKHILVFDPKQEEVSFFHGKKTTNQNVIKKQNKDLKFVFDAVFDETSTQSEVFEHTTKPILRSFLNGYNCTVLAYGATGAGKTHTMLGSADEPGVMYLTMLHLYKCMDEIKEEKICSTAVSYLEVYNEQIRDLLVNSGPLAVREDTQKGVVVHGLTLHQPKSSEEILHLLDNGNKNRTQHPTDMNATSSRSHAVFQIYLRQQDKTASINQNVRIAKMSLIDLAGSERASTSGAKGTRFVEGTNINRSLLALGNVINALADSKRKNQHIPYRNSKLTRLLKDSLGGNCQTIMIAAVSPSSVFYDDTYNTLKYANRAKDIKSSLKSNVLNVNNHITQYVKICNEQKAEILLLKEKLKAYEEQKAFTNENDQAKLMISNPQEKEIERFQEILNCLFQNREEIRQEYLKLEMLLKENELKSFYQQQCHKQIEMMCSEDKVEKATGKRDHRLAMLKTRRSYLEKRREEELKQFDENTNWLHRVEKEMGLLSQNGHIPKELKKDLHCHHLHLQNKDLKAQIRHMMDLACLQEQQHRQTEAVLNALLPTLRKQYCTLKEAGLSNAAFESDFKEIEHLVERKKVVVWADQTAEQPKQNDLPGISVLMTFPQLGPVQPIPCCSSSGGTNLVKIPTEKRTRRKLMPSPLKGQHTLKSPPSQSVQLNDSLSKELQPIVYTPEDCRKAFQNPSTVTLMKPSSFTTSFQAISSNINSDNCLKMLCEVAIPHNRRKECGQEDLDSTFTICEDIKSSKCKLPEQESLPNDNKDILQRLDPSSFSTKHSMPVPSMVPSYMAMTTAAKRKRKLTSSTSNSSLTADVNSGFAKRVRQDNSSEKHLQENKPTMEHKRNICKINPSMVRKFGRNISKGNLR
T1 sequence (P68363 whole entry partner): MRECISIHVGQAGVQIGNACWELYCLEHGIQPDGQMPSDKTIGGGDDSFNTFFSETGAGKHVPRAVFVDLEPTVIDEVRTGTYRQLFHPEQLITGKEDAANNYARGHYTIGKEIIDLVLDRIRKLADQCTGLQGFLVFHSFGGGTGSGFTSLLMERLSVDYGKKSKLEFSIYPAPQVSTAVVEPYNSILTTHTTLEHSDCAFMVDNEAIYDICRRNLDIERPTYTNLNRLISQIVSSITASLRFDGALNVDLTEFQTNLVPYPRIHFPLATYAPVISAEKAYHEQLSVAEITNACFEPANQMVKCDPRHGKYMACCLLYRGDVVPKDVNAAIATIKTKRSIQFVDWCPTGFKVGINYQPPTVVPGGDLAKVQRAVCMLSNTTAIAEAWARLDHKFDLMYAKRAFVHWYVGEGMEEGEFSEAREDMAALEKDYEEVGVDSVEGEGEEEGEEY
T1 sequence (Q9BVA1 whole entry partner): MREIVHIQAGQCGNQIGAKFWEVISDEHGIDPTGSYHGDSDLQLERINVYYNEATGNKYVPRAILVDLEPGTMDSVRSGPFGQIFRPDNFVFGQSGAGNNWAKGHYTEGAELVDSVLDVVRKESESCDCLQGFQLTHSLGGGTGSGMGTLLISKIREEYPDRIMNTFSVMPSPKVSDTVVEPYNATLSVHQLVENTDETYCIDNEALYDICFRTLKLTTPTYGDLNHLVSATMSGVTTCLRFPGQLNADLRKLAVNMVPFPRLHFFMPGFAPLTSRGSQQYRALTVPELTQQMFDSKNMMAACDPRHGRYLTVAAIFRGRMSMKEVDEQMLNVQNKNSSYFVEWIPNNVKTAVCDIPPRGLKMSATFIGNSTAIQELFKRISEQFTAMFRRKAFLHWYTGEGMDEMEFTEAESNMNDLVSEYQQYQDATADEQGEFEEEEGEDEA
Experimental: Inhibition degrees of the compounds of the present invention on recombinant human KIF18A enzyme activity in vitro were determined by the following method. An ADP-Glo™ Kinase Assay kit (article number V9102) from Promega Company was used in this method. Detailed experimental operation can be referred to the instruction of the kit.
The reaction was carried out in a 384-well microplate. The test compound and the recombinant human KIF18A protein (final concentration of 100 nM, entrusted to GenScript for expression) were added into the wells and incubated at room temperature for 20 minutes, and subsequently, ATP solution (component V915A from the ADP-Glo™ Kinase Assay kit, final concentration of 60 μM) was added to the reaction solution and the obtained system was incubated at room temperature for 20 minutes. Subsequently, 5 μL of ADP-Glo Reagent was added to the reaction system and the obtained system was incubated at room temperature for 50 minutes. Then, 10 μL of Kinase Detection Reagent was added to the reaction system, and the obtained system was incubated at room temperature for 30 minutes. After the incubation was ended, a chemiluminiscence intensity value of each well was determined by a microplate reader in a Luminescence mode.

`CCS(=O)(=O)Nc1ccc(C(=O)Nc2cc3c(c(N4CCC(F)(F)CC4)c2)OCC3)c(N2CCC3(CC2)CC3)c1` [Example 1, N-(7-(4,4-difluoropiperidin-1-yl)-2,3-dihydrobenzofuran-5-yl)-4-(ethylsulfonamido)-2-(6-azaspiro[2.5]octan-6-yl)benzamide] showed an IC50 [1] of 2.4 nM and an IC50 [2] of 52 nM.
